According to patent US10414769B2, “5,8-dimethyl-9-phenyl-5,8-dihydro-6H-pyrazolo[3,4-h]quinazolin-2-yl)-(1H-pyrazol-3-yl)-amines as IGF-1R/IR inhibitors” (Boehringer Ingelheim International GmbH, priority 2015, dated 2019):

Columns and labels:
Type in all cases: biochemical
CSNK2A1 (CK2 alpha 1) = biological target: T1, CSNK2A1 (CK2 alpha 1) (Homo sapiens, UniProt P68400); experiment: Z'-LYTE kinase selectivity assay CSNK2A1
T1 construct: purchased Life Technologies PV 3248
From the text: (§1) In order to compare the kinase selectivity of compounds (I) according to the invention with known prior art compounds the commercially provided SelectScreen® Kinase Profiling Service (Z′-LYTE®) was used (Life Technologies GmbH, Darmstadt, Germany) to investigate the ability of the compounds to inhibit a number of different, representatively selected human kinases. Further details regarding this service are available on the Life Technologies website at
(§2) The Z′-LYTE® biochemical assay employs a fluorescence-based, coupled-enzyme format and is based on the differential sensitivity of phosphorylated and non-phosphorylated peptides to proteolytic cleavage. The peptide substrate is labeled with two fluorophores—one at each end—that make up a FRET pair.
(§3) In the primary reaction, the kinase transfers the gamma-phosphate of ATP to a single tyrosine, serine or threonine residue in a synthetic FRET-peptide. In the secondary reaction, a site-specific protease recognizes and cleaves non-phosphorylated FRET-peptides. Phosphorylation of FRET-peptides suppresses cleavage by the Development Reagent. Cleavage disrupts FRET between the donor (i.e., coumarin) and acceptor (i.e., fluorescein) fluorophores on the FRET-peptide, whereas uncleaved, phosphorylated FRET-peptides maintain FRET. A ratiometric method, which calculates the ratio (the Emission Ratio) of donor emission to acceptor emission after excitation of the donor fluorophore at 400 nm, is used to quantitate reaction progress, as shown in the equation below.
(§4) The Test Compounds are screened at 1 μM.
The 2×CSNK2A1 (CK2 alpha 1) (# PV 3248)/Ser/Thr 11 (Z′-LYTE® Kinase Assay Kit—Ser/Thr 11 Peptide, # PV 3670) mixture is prepared in 50 mM HEPES pH 7.5, 0.01% BRIJ-35, 10 mM MgCl2, 1 mM EGTA. The final 10 μL Kinase Reaction consists of 0.68-25.7 ng CSNK2A1 (CK2 alpha 1) and 2 μM Ser/Thr 11 in 50 mM HEPES pH 7.5, 0.01% BRIJ-35, 10 mM MgCl2, 1 mM EGTA. After the 1 hour Kinase Reaction incubation, 5 μL of a 1:16 dilution of Development Reagent B is added.

EGFR (ErbB1) = biological target: T2, EGFR (ErbB1) (Homo sapiens, UniProt P00533); experiment: Z'-LYTE kinase selectivity assay EGFR
T2 construct: purchased Life Technologies PV 3872
From the text: as §1, §2, §3, §4
The 2×EGFR (ErbB1) (# PV 3872)/Tyr 04 (Z′-LYTE® Kinase Assay Kit—Tyrosine 4 Peptide, # PV 3193) mixture is prepared in 50 mM HEPES pH 7.5, 0.01% BRIJ-35, 10 mM MgCl2, 4 mM MnCl2, 1 mM EGTA, 2 mM DTT. The final 10 μL Kinase Reaction consists of 1.1-8 ng EGFR (ErbB1) and 2 μM Tyr 04 in 50 mM HEPES pH 7.5, 0.01% BRIJ-35, 10 mM MgCl2, 2 mM MnCl2, 1 mM EGTA, 1 mM DTT. After the 1 hour Kinase Reaction incubation, 5 μL of a 1:64 dilution of Development Reagent B is added.

MAP3K8 (COT) = biological target: T3, MAP3K8 (COT) (Homo sapiens, UniProt P41279); experiment: Z'-LYTE kinase selectivity assay MAP3K8
T3 construct: purchased Life Technologies PV 4313
From the text: as §1, §2, §3, §4
(§5) After the 1 hour Kinase Reaction incubation, 5 μL of a 1:1024 dilution of Development Reagent A is added.

RAF1 (cRAF) Y340D Y341D = biological target: T4, RAF1 (cRAF) Y340D Y341D (Homo sapiens, UniProt P04049, Y340D/Y341D); experiment: Z'-LYTE kinase selectivity assay RAF1
T4 construct: purchased Life Technologies PV 4046
From the text: as §1, §2, §3, §4, §5

ROCK2 = biological target: T5, ROCK2 (Homo sapiens, UniProt O75116); experiment: Z'-LYTE kinase selectivity assay ROCK2
T5 construct: purchased Life Technologies PV 3759
From the text: as §1, §2, §3, §4
The 2×ROCK2 (# PV 3759)/Ser/Thr 13 (Z′-LYTE® Kinase Assay Kit—Ser/Thr 13 Peptide, # PV 3793) mixture is prepared in 50 mM HEPES pH 7.5, 0.01% BRIJ-35, 10 mM MgCl2. 1 mM EGTA. The final 10 μL Kinase Reaction consists of 0.62-4.13 ng ROCK2 and 2 μM Ser/Thr 13 in 50 mM HEPES pH 7.5, 0.01% BRIJ-35, 10 mM MgCl2, 1 mM EGTA. After the 1 hour Kinase Reaction incubation, 5 μL of a 1:1024 dilution of Development Reagent A is added.

LCK = biological target: T6, LCK (Homo sapiens, UniProt P06239); experiment: Z'-LYTE kinase selectivity assay LCK
T6 construct: purchased Life Technologies P 3043
From the text: as §1, §2, §3, §4
The 2×LCK (# P 3043)/Tyr 02 (Z′-LYTE® Kinase Assay Kit—Tyrosine 2 Peptide, # PV 3191) mixture is prepared in 50 mM HEPES pH 7.5, 0.01% BRIJ-35, 10 mM MgCl2, 1 mM EGTA. The final 10 μL Kinase Reaction consists of 2.46-50 ng LCK and 2 μM Tyr 02 in 50 mM HEPES pH 7.5, 0.01% BRIJ-35, 10 mM MgCl2, 1 mM EGTA. After the 1 hour Kinase Reaction incubation, 5 μL of a 1:128 dilution of Development Reagent A is added.

T4 sequence (P04049 306-648 Y340D/Y341D limits assumed): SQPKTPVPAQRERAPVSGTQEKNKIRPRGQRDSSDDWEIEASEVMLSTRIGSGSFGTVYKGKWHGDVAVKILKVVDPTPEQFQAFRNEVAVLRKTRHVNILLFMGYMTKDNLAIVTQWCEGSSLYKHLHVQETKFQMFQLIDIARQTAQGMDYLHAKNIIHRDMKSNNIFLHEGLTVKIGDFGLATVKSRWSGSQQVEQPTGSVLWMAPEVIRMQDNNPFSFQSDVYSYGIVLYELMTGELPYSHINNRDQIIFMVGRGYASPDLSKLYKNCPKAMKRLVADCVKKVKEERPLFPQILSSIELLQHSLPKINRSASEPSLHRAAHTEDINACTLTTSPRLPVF
T5 sequence (O75116 whole entry): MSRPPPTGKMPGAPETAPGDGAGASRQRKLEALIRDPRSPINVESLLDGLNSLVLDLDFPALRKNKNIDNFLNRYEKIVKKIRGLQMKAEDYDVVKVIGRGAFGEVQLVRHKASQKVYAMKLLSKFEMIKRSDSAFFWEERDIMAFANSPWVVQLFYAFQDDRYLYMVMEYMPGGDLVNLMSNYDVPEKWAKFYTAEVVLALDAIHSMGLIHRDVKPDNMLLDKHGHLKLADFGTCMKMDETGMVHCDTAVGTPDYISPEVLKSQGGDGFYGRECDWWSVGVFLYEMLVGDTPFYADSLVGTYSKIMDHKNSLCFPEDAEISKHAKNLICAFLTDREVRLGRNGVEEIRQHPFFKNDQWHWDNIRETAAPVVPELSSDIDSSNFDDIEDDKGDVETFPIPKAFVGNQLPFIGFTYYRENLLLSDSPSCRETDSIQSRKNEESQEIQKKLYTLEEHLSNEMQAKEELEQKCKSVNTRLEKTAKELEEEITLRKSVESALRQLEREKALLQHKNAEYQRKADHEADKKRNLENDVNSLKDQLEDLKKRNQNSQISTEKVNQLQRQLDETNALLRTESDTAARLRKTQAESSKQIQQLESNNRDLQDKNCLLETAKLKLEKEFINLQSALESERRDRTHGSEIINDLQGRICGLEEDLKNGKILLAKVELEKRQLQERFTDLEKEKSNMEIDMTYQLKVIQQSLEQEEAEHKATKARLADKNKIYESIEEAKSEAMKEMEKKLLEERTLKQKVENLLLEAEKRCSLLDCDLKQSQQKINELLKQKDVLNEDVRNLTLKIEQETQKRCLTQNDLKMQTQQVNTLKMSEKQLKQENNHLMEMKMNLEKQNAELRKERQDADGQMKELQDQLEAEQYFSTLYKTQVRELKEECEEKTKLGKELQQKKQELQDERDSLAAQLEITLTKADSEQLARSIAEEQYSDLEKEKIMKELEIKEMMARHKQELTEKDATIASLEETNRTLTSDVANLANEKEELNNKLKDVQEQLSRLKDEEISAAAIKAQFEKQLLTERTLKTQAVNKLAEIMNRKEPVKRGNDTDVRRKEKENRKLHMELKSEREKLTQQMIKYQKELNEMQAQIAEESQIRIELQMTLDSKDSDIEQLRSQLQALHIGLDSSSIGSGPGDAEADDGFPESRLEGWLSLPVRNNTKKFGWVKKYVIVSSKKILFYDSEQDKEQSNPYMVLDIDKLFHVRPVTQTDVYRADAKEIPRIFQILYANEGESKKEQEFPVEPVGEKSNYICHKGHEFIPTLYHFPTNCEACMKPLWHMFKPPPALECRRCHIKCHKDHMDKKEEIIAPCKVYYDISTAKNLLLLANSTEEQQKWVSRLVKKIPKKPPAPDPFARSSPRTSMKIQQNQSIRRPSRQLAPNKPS
T2 sequence (P00533 25-1210): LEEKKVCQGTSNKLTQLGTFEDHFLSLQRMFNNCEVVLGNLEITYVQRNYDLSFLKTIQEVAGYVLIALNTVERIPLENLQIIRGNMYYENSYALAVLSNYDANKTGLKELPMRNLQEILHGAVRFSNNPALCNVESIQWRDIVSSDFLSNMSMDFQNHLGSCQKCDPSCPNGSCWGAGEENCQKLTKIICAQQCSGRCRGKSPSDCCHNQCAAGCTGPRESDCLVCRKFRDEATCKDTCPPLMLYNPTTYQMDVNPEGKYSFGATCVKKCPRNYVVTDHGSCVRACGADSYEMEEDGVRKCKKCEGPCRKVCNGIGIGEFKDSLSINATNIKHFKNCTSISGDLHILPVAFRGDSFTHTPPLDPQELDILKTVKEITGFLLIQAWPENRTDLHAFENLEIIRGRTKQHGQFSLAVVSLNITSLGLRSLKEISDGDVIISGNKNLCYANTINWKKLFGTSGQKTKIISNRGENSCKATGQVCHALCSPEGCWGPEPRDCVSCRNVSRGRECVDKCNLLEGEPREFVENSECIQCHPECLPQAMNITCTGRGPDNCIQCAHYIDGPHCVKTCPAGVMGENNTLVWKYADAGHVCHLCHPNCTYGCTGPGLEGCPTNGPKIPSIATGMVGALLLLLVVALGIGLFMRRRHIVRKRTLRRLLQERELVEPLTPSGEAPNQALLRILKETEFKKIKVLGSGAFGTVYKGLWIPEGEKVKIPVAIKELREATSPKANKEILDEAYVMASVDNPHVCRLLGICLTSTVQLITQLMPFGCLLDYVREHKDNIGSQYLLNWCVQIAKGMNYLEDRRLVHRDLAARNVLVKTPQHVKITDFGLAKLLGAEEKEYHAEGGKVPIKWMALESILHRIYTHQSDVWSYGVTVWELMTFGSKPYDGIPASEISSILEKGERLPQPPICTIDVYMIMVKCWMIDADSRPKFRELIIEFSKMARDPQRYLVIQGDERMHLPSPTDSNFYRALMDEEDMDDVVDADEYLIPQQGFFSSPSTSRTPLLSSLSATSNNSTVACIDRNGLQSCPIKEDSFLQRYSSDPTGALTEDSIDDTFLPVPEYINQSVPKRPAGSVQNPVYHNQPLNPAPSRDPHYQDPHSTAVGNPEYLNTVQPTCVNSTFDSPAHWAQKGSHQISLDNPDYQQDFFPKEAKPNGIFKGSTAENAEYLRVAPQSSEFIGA
T6 sequence (P06239 whole entry): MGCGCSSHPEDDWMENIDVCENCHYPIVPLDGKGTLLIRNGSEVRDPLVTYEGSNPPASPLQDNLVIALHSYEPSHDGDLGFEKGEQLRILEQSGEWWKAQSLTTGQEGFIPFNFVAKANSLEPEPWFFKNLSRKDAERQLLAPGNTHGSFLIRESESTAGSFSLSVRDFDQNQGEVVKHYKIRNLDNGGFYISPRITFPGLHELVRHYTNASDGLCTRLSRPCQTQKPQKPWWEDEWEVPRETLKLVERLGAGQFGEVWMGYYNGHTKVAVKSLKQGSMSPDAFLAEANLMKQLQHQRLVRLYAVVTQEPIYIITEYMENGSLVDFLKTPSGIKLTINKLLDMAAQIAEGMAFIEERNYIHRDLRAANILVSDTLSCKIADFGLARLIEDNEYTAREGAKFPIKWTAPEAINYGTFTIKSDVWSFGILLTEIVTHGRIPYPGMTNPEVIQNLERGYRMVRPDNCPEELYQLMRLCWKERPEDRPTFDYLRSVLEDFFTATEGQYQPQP
T1 sequence (P68400 whole entry): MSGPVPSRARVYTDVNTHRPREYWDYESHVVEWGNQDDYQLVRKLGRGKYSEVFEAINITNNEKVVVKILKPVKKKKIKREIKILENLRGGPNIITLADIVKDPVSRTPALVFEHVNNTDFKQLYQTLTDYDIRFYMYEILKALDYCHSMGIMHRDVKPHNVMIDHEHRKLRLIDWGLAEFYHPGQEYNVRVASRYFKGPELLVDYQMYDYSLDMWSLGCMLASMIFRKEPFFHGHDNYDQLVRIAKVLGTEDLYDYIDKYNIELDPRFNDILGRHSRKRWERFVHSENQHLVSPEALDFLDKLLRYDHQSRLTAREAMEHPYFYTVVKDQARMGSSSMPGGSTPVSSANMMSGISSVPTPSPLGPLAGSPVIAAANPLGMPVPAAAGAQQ
T3 sequence (P41279 whole entry): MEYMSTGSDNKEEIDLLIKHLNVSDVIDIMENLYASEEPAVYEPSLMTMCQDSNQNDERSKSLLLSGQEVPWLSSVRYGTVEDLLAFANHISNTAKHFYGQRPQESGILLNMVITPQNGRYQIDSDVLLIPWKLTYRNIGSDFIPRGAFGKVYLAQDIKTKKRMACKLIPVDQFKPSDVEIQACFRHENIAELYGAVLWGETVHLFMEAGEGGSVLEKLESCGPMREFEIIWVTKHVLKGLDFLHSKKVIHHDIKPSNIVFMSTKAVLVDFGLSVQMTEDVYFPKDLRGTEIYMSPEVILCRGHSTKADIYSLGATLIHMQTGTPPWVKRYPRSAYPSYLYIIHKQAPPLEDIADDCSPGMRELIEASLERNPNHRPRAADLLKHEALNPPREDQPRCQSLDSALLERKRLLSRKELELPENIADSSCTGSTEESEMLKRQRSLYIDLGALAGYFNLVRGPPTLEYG

Row | Compound | inhibition at 1 µM (CSNK2A1 (CK2 alpha 1)) | inhibition at 1 µM (EGFR (ErbB1)) | inhibition at 1 µM (MAP3K8 (COT)) | inhibition at 1 µM (RAF1 (cRAF) Y340D Y341D) | inhibition at 1 µM (ROCK2) | inhibition at 1 µM (LCK)
1 | C[C@@H]1Cc2nn(C)c(-c3ccccc3)c2-c2nc(Nc3ccn(CCN4CCN(C)CC4)n3)ncc21 [Compound I-1] | 4% | 65% | 27% | 16% | 1% | 85%
2 | C[C@@H]1Cc2nn(C)c(-c3ccccc3)c2-c2nc(Nc3ccn(CCN4CCOCC4)n3)ncc21 [Compound I-2] | 10% | 68% | 57% | 40% | 6% | 78%
3 | C[C@@H]1Cc2nn(C)c(-c3ccccc3)c2-c2nc(Nc3ccn(CCN4CCN(CC(C)(C)O)CC4)n3)ncc21 [Compound I-3] | 3% | 72% | 45% | 31% | 7% | 82%
4 | CC(O)CN1CCN(CCn2ccc(Nc3ncc4c(n3)-c3c(nn(C)c3-c3ccccc3)C[C@H]4C)n2)CC1 (stereo partly drawn) [Compound I-7] | 8% | 77% | 42% | 36% | 9% | 84%
5 | C[C@@H]1Cc2nn(C)c(-c3ccccc3)c2-c2nc(Nc3ccn(CCN4CCN(CC(=O)OC5CCOCC5)CC4)n3)ncc21 [Compound I-8] | 7% | 56% | 38% | 25% | 7% | 59%
6 | C[C@@H]1Cc2nn(C)c(-c3ccccc3)c2-c2nc(Nc3ccn(CCN4CCN(CC5CCCO5)CC4)n3)ncc21 (stereo partly drawn) [Compound I-9] | 1% | 65% | 37% | 32% | 3% | 80%
7 | COCCN1CCN(CCn2ccc(Nc3ncc4c(n3)-c3c(nn(C)c3-c3ccccc3)C[C@H]4C)n2)CC1 [Compound I-11] | 2% | 53% | 22% | 14% | 9% | 76%
